# Measured values reported in patent US12428398B2, “2-(2,4,5-substituted phenylamino) pyrimidine derivative and crystalline form B thereof” (Henan Genuine Biotech Co., Ltd., priority 2019, dated 2025).
# What was measured:
# [1] = Pharmacokinetics of Dositinib and AZD9291 in rats; conditions: for T1/2: parent drug; for AUC0-last / Cmax: parent drug in plasma; for Cmax: intragastric 12 mg/kg per FIGS. 2-5
# Source text: Preparation of Test Solution
# 2) Preparation of Orally Administered Preparations • a) Weigh an appropriate amount of compound powders into a container; • b) Add an appropriate volume of 0.5% HPMC (hydroxypropyl methylcellulose, 4000 CP) aqueous solution to the container, and continuously stir or whirl until a uniform solution was obtained; • c) Add the remaining volume of 0.5% HPMC (hydroxypropyl methylcellulose, 4000 CP) aqueous solution to the container to a final volume, and continuously stir or whirl until the solution was uniform.
# The preparation for intragastric administration was prepared the day before administration and analyzed. When the preparation was not in use, it was stored in a refrigerator at 2° C. to 8° C. and used within 8 days.
# Animal: Rats (SD) from Beijing Vital River Laboratory Animal Technology Co., Ltd. 36 rats (18 males and 18 females), 6-10 weeks old, 200-300 g (males); 170-280 g (female). […] The animals in the sixth group were administered with AZD9291 (mesylate) solution by gavage, with a dose volume of 10 mL/kg. The blood samples were taken at the following time points after administration to measure the blood drug concentrations: 0.083, 0.25, 0.5, 1, 2, 4, 6, 8, 12 and 24 hours.
# Administration: Whole blood samples were collected through jugular vein puncture (or other appropriate blood collection sites) at the specified time (about 0.15 mL in the fifth group and 0.23 mL in other groups), with wet ice operation throughout the whole process, and the actual blood collection time was recorded in the experimental records. The acceptable error of collection time point was ±1 minute within 1 hour of administration, and ±5% of theoretical time for other time points. The blood samples were immediately transferred to labeled commercial tubes containing K2-EDTA and then centrifuged (3,000 g, 4° C., 15 min) for plasma collection.
# Retention time, chromatogram collection and chromatogram integration of compounds and internal standards were processed by Software Analyst (Applied Biosystems), and data statistics were processed by software Watson LIMS (Thermo Fisher Scientific) or Analyst (Applied Biosystems). The unit of the analyte concentration in the sample was nM, three significant figures were reserved, and all values expressed in percentage (such as % deviation and % coefficient of variation, etc.) were reserved to one decimal place.
# Data analysis and reporting: WinNonlin™ Version 6.3 (Pharsight, Mountain View, CA) or above pharmacokinetic software for non-atrioventricular models was used to process the blood drug concentration, and the linear logarithm trapezoid method was used to calculate the pharmacokinetic parameters.
# wild EGFR = wild EGFR (Homo sapiens, UniProt P00533); conditions: J. Med. Chem. 2014; cited from earlier work
# Chain of wild EGFR (P00533 25-1210): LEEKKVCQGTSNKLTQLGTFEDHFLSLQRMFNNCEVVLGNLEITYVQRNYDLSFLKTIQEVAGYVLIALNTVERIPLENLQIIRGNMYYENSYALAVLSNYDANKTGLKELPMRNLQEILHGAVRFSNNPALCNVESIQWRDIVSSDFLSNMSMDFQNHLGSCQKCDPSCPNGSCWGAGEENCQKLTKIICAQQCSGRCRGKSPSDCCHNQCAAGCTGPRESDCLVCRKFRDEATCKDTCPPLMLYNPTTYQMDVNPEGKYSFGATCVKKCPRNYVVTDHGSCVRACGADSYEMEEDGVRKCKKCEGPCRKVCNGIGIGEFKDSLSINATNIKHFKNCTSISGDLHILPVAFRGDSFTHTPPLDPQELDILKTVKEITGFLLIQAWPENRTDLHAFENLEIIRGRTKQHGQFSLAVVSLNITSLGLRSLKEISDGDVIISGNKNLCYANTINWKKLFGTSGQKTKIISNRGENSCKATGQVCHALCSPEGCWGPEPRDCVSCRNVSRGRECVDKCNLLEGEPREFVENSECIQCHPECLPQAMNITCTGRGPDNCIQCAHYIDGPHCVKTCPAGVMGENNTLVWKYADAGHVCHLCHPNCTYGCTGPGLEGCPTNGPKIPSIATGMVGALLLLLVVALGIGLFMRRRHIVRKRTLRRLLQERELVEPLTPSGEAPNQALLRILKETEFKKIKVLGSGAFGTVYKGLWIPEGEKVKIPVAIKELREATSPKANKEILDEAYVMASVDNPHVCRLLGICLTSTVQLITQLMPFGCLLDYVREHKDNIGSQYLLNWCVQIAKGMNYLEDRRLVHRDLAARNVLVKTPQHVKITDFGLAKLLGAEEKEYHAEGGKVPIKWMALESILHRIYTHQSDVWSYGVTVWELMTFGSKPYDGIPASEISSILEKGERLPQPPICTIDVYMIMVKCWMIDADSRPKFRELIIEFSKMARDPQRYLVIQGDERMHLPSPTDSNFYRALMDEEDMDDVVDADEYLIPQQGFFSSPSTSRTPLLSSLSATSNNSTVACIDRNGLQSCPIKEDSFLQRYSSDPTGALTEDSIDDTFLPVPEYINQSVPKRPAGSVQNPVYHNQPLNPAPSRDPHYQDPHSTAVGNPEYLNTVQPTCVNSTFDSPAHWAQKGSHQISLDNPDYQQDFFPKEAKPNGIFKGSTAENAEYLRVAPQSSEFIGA
# [2] = test system: Human non-small cell lung cancer HCC827 cell subcutaneous xenograft; conditions: HCC-827 nude mouse model, PO QD
# Procedure: Example 5 In Vivo Pharmacodynamics of Crystalline Form B of Dositinib and AZD9291 on Human Non-Small Cell Lung Cancer HCC827 Cell Subcutaneous Xenograft BALB/C Nude Mouse Model
# Human non-small cell lung cancer HCC827 (ATCC-CRL-2868) was monolayer cultured in vitro. The culture conditions were: RPMI-1640 medium with 10% fetal bovine serum, 100 U/mL penicillin and 100 g/mL streptomycin, in a 5% CO2 incubator at 37° C. Trypsin EDTA was used for routine digestion twice a week. When the cell saturation was 80%-90% and the number reached the requirements, the cells were collected, counted and transplanted.
# Animals: BALB/c nude mouse, female, 6-8 weeks old, weight 18-22 g. […]
# Experimental index: to investigate whether the tumor growth is inhibited, delayed or cured. The tumor diameter was measured with a vernier caliper twice a week. […]
# The antitumor effect of the compound was evaluated by tumor growth inhibition value (TGI) (%) or relative tumor proliferation rate T/C (%). […]
# Relative tumor proliferation rate T/C (%): the calculation is as follows: T/C %=TRTV/CRTV×100% (TRTV: treatment group RTV; CRTV: negative control group RTV). The relative tumor volume (RTV) is calculated according to the results of tumor measurement. […]
# At the end of the experiment, the tumor weight is measured and the percentage of Tweight/Cweight is calculated. […]
SMILES,T1/2 ([1]; female rats) [h],AUC0-last ([1]; female rats) [ng·h/mL],Cmax ([1]; female rats) [ng/mL],T1/2 ([1]; male rats) [h],AUC0-last ([1]; male rats) [ng·h/mL],Cmax ([1]; male rats) [ng/mL],"inhibitory activity on wild EGFR, times stronger than that of Osimertinib (wild EGFR) [times]","anticancer activity relative to AZD9291 (Osimertinib, mixture of crystalline forms A and B) [2]",anticancer activity of 0.5 mg/kg compared with 1 mg/kg of AZD9291 ([2]; 0.5 mg/kg)
"CS(=O)(=O)O.[2H]C([2H])=CC(=O)Nc1cc(Nc2nccc(-c3cn(C([2H])([2H])[2H])c4ccccc34)n2)c(OC)cc1N(C)CCN(C)C [Dositinib (crystalline form A + B), N-(2-(((2-(Dimethylamino)ethyl)) (methyl)amino)-4-methoxy-5-((4-(d3-1-methyl-1H-indol-3-yl)pyrimidin-2-yl)amino)phenyl) d2-acrylamide-mesylate]",6.77,2650,205,3.70,915,110,–,–,–
"C=CC(=O)Nc1cc(Nc2nccc(-c3cn(C)c4ccccc34)n2)c(OC)cc1N(C)CCN(C)C [AZD9291 (crystalline form A + B), Osimertinib, reference compound]",5.59,2592,207,3.40,907,106,–,–,–
C=CC(=O)Nc1cc(Nc2nccc(-c3c[nH]c4ccccc34)n2)c(OC)cc1N(C)CCN(C)C [AZ5104],–,–,–,–,–,–,14.5,–,–
"CS(=O)(=O)O.[2H]C([2H])=CC(=O)Nc1cc(Nc2nccc(-c3cn(C([2H])([2H])[2H])c4ccccc34)n2)c(OC)cc1N(C)CCN(C)C [Dositinib (crystalline form B), N-(2-(((2-(Dimethylamino)ethyl)) (methyl)amino)-4-methoxy-5-((4-(d3-1-methyl-1H-indol-3-yl)pyrimidin-2-yl)amino)phenyl) d2-acrylamide-mesylate]",6.85,3105,208,3.87,1100,115,–,twice,equivalent
